Results from patent US20250235455A1, “AQUEOUS TICAGRELOR SOLUTIONS, METHOD OF MANUFACTURING AND USES” (HYLORIS DEVELOPMENTS SA, priority 2022, published 2025).

Assay: Storage stability in amber glass vials at pH 7, 7.5 and 8, 19 mM buffer
Type: physicochemical
Details: for Acetal impurity / Amine impurity / Description / Regiomer / Sum Impurities >0.05 / Total impurity / Triol impurity / pH / Assay: HPβCD 40% w/w; for Assay: in %
Method: To optimize the HPβCD concentration and the pH of the solution for intravenous use, a 12 week/3 months stability study was conducted. […] Its stability was tested at regular intervals.
A comparison of stability profile at 3 different pH—7, 7.5 and 8—was carried out as below, the manufacturing process for all 3 formulations was kept constant with buffer strength at 19 mM.

[1] = 19 mM pH 7 Phosphate Buffer, 1 M
[2] = 19 mM pH 7 Phosphate Buffer, 2 M
[3] = 19 mM pH 7 Phosphate Buffer, 3 M
[4] = 19 mM pH 7 Phosphate Buffer, T0
[5] = 19 mM pH 7.5 Phosphate Buffer, 1 M
[6] = 19 mM pH 7.5 Phosphate Buffer, 2 M
[7] = 19 mM pH 7.5 Phosphate Buffer, 3 M
[8] = 19 mM pH 7.5 Phosphate Buffer, T0
[9] = 19 mM pH 8 Phosphate buffer, 1 M
[10] = 19 mM pH 8 Phosphate buffer, 2 M
[11] = 19 mM pH 8 Phosphate buffer, 3 M
[12] = 19 mM pH 8 Phosphate buffer, T0

CCCSc1nc(N[C@@H]2C[C@H]2c2ccc(F)c(F)c2)c2nnn([C@@H]3C[C@H](OCCO)[C@@H](O)[C@H]3O)c2n1 [Ticagrelor, (1S,2S,3R,5S)-3-{7-[(1R,2S)-2-(3,4-difluorophenyl)cyclopropylamino]5-(propylthio)-3H-(1,2,3)triazolo (4,5-D)pyrimidin-3-yl}-5-(2 hydroxyethoxy)cyclopentane-1,2-diol]
Acetal impurity [1]: 0.05% | Amine impurity [1]: 0.04% | Description [1]: clear | Regiomer [1]: 0.03% | Sum Impurities >0.05 [1]: 0.05% | Total impurity [1]: 0.27% | Triol impurity [1]: 0.02% | pH [1]: 7.34 | Assay [1]: 99.73 | Acetal impurity [2]: 0.05% | Amine impurity [2]: 0.04% | Description [2]: clear | Regiomer [2]: 0.06% | Sum Impurities >0.05 [2]: 0.11% | Total impurity [2]: 0.34% | Triol impurity [2]: 0.04% | pH [2]: 7.34 | Assay [2]: 99.81 | Acetal impurity [3]: 0.05% | Amine impurity [3]: 0.06% | Description [3]: clear | Regiomer [3]: 0.11% | Sum Impurities >0.05 [3]: 0.22% | Total impurity [3]: 0.40% | Triol impurity [3]: 0.04% | pH [3]: 7.30 | Assay [3]: 98.51 | Acetal impurity [4]: 0.05% | Amine impurity [4]: 0.04% | Description [4]: clear | Regiomer [4]: 0.00% | Sum Impurities >0.05 [4]: 0.22% | Total impurity [4]: 0.41% | Triol impurity [4]: 0.05% | pH [4]: 7.33 | Assay [4]: 98.95 | Acetal impurity [5]: 0.05% | Amine impurity [5]: 0.05% | Description [5]: clear | Regiomer [5]: 0.01% | Sum Impurities >0.05 [5]: 0.14% | Total impurity [5]: 0.32% | Triol impurity [5]: 0.05% | pH [5]: 7.50 | Assay [5]: 104.47 | Acetal impurity [6]: 0.05% | Amine impurity [6]: 0.05% | Description [6]: clear | Regiomer [6]: 0.04% | Sum Impurities >0.05 [6]: 0.15% | Total impurity [6]: 0.29% | Triol impurity [6]: 0.05% | pH [6]: 7.48 | Assay [6]: 102.59 | Acetal impurity [7]: 0.05% | Amine impurity [7]: 0.05% | Description [7]: clear | Regiomer [7]: 0.08% | Sum Impurities >0.05 [7]: 0.23% | Total impurity [7]: 0.41% | Triol impurity [7]: 0.04% | pH [7]: 7.55 | Assay [7]: 102.31 | Acetal impurity [8]: 0.05% | Amine impurity [8]: 0.04% | Description [8]: clear | Regiomer [8]: 0.00% | Sum Impurities >0.05 [8]: 0.11% | Total impurity [8]: 0.31% | Triol impurity [8]: 0.04% | pH [8]: 7.40 | Assay [8]: 104.27 | Acetal impurity [9]: 0.05% | Amine impurity [9]: 0.05% | Description [9]: clear | Regiomer [9]: 0.01% | Sum Impurities >0.05 [9]: 0.09% | Total impurity [9]: 0.26% | Triol impurity [9]: 0.03% | pH [9]: 8.10 | Assay [9]: 105.88 | Acetal impurity [10]: 0.05% | Amine impurity [10]: 0.05% | Description [10]: clear | Regiomer [10]: 0.03% | Sum Impurities >0.05 [10]: 0.15% | Total impurity [10]: 0.32% | Triol impurity [10]: 0.05% | pH [10]: 8.04 | Assay [10]: 105.46 | Acetal impurity [11]: 0.05% | Amine impurity [11]: 0.07% | Description [11]: clear | Regiomer [11]: 0.06% | Sum Impurities >0.05 [11]: 0.23% | Total impurity [11]: 0.37% | Triol impurity [11]: 0.05% | pH [11]: 8.03 | Assay [11]: 104.46 | Acetal impurity [12]: 0.05% | Amine impurity [12]: 0.04% | Description [12]: clear | Regiomer [12]: 0.00% | Sum Impurities >0.05 [12]: 0.25% | Total impurity [12]: 0.43% | Triol impurity [12]: 0.06% | pH [12]: 8.07 | Assay [12]: 103.25 | Stability of solution in HPβCD (pH range of 7 to 8): stable
